Entries after “also recorded” stand apart in the source; their conditions may differ. Where a name gives a salt, the structure may show the parent alone.
Assays:
[1] = test system: tumor; settings: in vivo; cited from earlier work
[2] = test system: host animals; settings: in vivo; cited from earlier work
[3] = test system: GSH/GST; assay: Relative rate of activation by GSH/GST in vitro; format: in vitro ADME; settings: GSH 1 mM, GST 400 μg/ml; for Relative Activation Rate by GSH/GST: 1 mM compound, compound 6 = 100
Procedure: When R^3 is a methyl group, the rate of activation by GSH/GST is highly dependent upon the nature of the 2-alkoxy- or 2-aryloxycarbonyl moiety at the R^4 position.
The rate of activation of 2-(2-bromoethoxy)carbonyl-1,2-bis(methylsulfonyl)-1-methylhydrazine (compound 8) was elevated approximately 18-fold in vitro by the presence of GSH (1 mM) and GST (400 μg/ml), compared to buffer alone.

[4] = Activation by hydrolysis in phosphate buffer; format: physicochemical; settings: 1 mM phosphate buffer, pH 7.4, 37° C.
Procedure: (§1) The rates of activation of compounds 10a-h were measured in 1 mM phosphate buffer (pH 7.4, 37° C.) alone, 1 mM phosphate buffer containing 5 mM GSH (pH 7.4, 37° C.), and in 1 mM phosphate buffer containing 5 mM GSH and 17.5 U/ml of GST (pH 7.4, 37° C.) (Table 3).

[5] = Activation by thiolysis (GSH); format: in vitro ADME; settings: 1 mM phosphate buffer, 5 mM GSH, pH 7.4, 37° C.
Procedure: as §1

[6] = test system: GST; assay: Activation by GST-catalyzed thiolysis; format: in vitro ADME; settings: 1 mM phosphate buffer, 5 mM GSH, 17.5 U/ml GST, pH 7.4, 37° C.
Procedure: as §1

[7] = test system: L1210 leukemia; assay: Survival time and body weight of mice bearing the L1210 leukemia; format: in vivo, mice (CD2 F1); settings: for Av Δ wt (average percent change in body weight from onset to termination of therapy) / % 60-day survivors: Table 4; for Av Δ wt (average percent change in body weight from onset to termination of therapy): i.p. once daily for 6 days at optimum daily dose (10a 60, 10b 25, 10c 12.5, 10d-h 30 mg/kg); for % 60-day survivors: i.p. once daily for 6 days at optimum daily dose (30 mg/kg for 10d-g); for % Body Weight Change / Average Survival / T/C / Long Term Survival: Table 5; for Long Term Survival: survivors/animals
Procedure: The ascites cell form of leukemia L1210 was obtained from the Frederick Cancer Research Facility, Division of Cancer Treatment Tumor Repository of the National Cancer Institute, and was maintained by serial passage in tissue culture. Every 8 weeks, tumor cells were injected intraperitoneally into 5 donor CD2 F1 mice 8-10 weeks of age and were allowed to grow for 7 days. The peritoneal fluid was withdrawn, and the suspension was centrifuged for 5 min at 1600×g. The supernatant was decanted, and 10^5 cells/ml were seeded into 10 ml of RPMI 1640 medium supplemented with 10% fetal bovine serum and 1% L-glutamine (200 mM) and once again maintained in culture. To assay for antitumor activity, 0.1 ml of the cell suspension containing 10^5 leukemia cells was injected into each recipient mouse. […] Each drug was administered intraperitoneally as a solution in 100% dimethyl sulfoxide, in a volume not exceeding 25 μl. […] Mice were weighed during the course of the experiments, and the percentage change in body weight from onset to termination of therapy was used as an indication of drug toxicity. Determination of the sensitivity of neoplasms to these agents was based upon the prolongation of survival time afforded by the drug treatments.
The antitumor activity of compounds 10a-h and 16 were assessed in mice bearing the L1210 leukemia. The results of these tests are summarized in Tables 4 and 5 which show the effects of 2-alkoxycarbonyl- and 2-aryloxycarbonyl-1,2-bis(methylsulfonyl)-1-(2-chloroethyl)hydrazines on the survival time of mice bearing the L1210 leukemia.
In Table 4, the optimum daily dose was administered once per day for six consecutive days, beginning 24 hours after tumor implantation, with 5-10 mice being used per group. In Table 5, multiple dosages of compound 16 are indicated. "Av Δ wt" refers to the average percent change in body weight from onset to termination of therapy. "% T/C" refers to the average survival time of treated/control mice×100. Cures (60-day survivors) are listed separately and are not included in this calculation.

[8] = test system: EMT6 mammary carcinoma cells; assay: Colony-forming assay, EMT6 cells under hypoxic or aerobic conditions; format: cell-based, mouse; settings: 1 hr
Procedure: The ability of compounds 10h, 11, 12, and 14 to exert preferential toxicity to hypoxic cells was evaluated using the EMT6 mammary carcinoma by methodology described previously (Rockwell, S., Keyes, S. R., and Sartorelli, A. C. Rad. Res. 116: 100-113 (1988); Keyes, S. R., Rockwell, S., and Sartorelli, A. C. Cancer Res. 45: 213-216 (1985)). Briefly, exponentially growing monolayers of EMT6 (or CHO-K1/dhfr clone) were exposed to a continuously flowing 95% N2 /5% CO2 humidified atmosphere for 2 h to produce radiobiologic hypoxia. Parallel flasks were maintained similarly in humidified 95% air/5% CO2. Without breaking the hypoxia, cells were exposed to various concentrations of the test agent for 1 hr. Cell survival was then measured by colony formation.
The cytotoxicity of compound 10h was evaluated against EMT6 mouse mammary carcinoma cells in vitro under aerobic and hypoxic conditions using the colony-forming assay described above. FIG. 1 depicts the survival of EMT6 cells exposed to various concentrations of compound 10h for 1 hr under hypoxic or aerobic conditions in vitro. Points are the geometric means of two or more independent determinations of surviving fractions. The SEMs are shown where n≥3 and where the error is larger than the point size. Open triangles represent aerobic data points and filled triangles represent hypoxic data points.
Compound 12 was evaluated for its ability to exert preferential toxicity to hypoxic EMT6 cells relative to their aerobic counterparts. […] Points are geometric means of two or more independent determinations of surviving fractions. The SEMs are shown where n≥3 and where the error is larger than the point size. Open triangles are aerobic data points, and filled triangles are hypoxic data points. […] Points are means of duplicate determinations. Open triangles are parental-aerobic; filled triangles are parental-hypoxic; open circles are NADPH:cytochrome P450 reductase-transfected-aerobic; filled circles are NADPH:cytochrome P450 reductase-transfected-hypoxic.

For CS(=O)(=O)N(CCCl)N(C(=O)NCCCl)S(C)(=O)=O [Compound 3], the “antitumor/antineoplastic activity (in words)” value [1] is given as “broad-spectrum antitumor activity” and the “host toxicity (in words)” value [2] is given as “considerably less toxic to host animals than compound 2”.
In the case of CC(=O)N(N(CCCl)S(C)(=O)=O)S(C)(=O)=O [Compound 4], the “antitumor/antineoplastic activity (in words)” value [1] is given as “broad-spectrum antitumor activity” and the “host toxicity (in words)” value [2] is given as “considerably less toxic to host animals than compound 2”.
With CCOC(=O)N(N(C)S(C)(=O)=O)S(C)(=O)=O [Compound 7, 1,2-Bis(methylsulfonyl)-2-(ethoxycarbonyl)-1-methylhydrazine] the “Relative Activation Rate by GSH/GST” value [3] was 30.
With CN(N(C(=O)OCCBr)S(C)(=O)=O)S(C)(=O)=O [Compound 8, 1,2-Bis(methylsulfonyl)-2-(2-bromoethoxycarbonyl)-1-methylhydrazine] the “Relative Activation Rate by GSH/GST” value [3] was 300 and the “elevation of rate of activation by GSH and GST compared to buffer alone” value ([3]; in vitro) was “approximately 18 fold”.
With COc1ccc(OC(=O)N(N(C)S(C)(=O)=O)S(C)(=O)=O)cc1 [Compound 9, 1,2-Bis(methylsulfonyl)-2-[(4-methoxyphenoxy)carbonyl]-1-methylhydrazine] the “Relative Activation Rate by GSH/GST” value [3] was 1,700.
For COC(=O)N(N(CCCl)S(C)(=O)=O)S(C)(=O)=O [Compound 10a, 1,2-Bis(methylsulfonyl)-1-(2-chloroethyl)-2-(methoxycarbonyl)hydrazine], the “Calculated Activation Rate due to Hydrolysis” value [4] was 0.03 nmol/mL/min, the “Calculated Activation Rate due to Thiolysis (5 mM GSH)” value [5] was 0.02 nmol/mL/min and the “Calculated Activation Rate due to Catalyzed Thiolysis (5 mM GSH + 17.5 U/ml GST)” value [6] was 0.00 nmol/mL/min. For the same molecule, the “Av Δ wt (average percent change in body weight from onset to termination of therapy)” value [7] was -10.9%.
In the case of CS(=O)(=O)N(CCCl)N(C(=O)OCCCl)S(C)(=O)=O [Compound 10b, 1,2-Bis(methylsulfonyl)-1-(2-chloroethyl)-2-(2-chloroethoxycarbonyl)hydrazine], the “Calculated Activation Rate due to Hydrolysis” value [4] is reported as 0.02 nmol/mL/min, the “Calculated Activation Rate due to Thiolysis (5 mM GSH)” value [5] is reported as 0.02 nmol/mL/min and the “Calculated Activation Rate due to Catalyzed Thiolysis (5 mM GSH + 17.5 U/ml GST)” value [6] is reported as 0.08 nmol/mL/min. The “Av Δ wt (average percent change in body weight from onset to termination of therapy)” value [7] was -10.7%.
For C=COC(=O)N(N(CCCl)S(C)(=O)=O)S(C)(=O)=O [Compound 10c, 1,2-Bis(methylsulfonyl)-1-(2-chloroethyl)-2-(vinyloxycarbonyl)hydrazine], the “Calculated Activation Rate due to Hydrolysis” value [4] was 0.07 nmol/mL/min, the “Calculated Activation Rate due to Thiolysis (5 mM GSH)” value [5] was 2.07 nmol/mL/min and the “Calculated Activation Rate due to Catalyzed Thiolysis (5 mM GSH + 17.5 U/ml GST)” value [6] was 4.70 nmol/mL/min. The “Av Δ wt (average percent change in body weight from onset to termination of therapy)” value [7] was -12.4%.
With CS(=O)(=O)N(CCCl)N(C(=O)Oc1ccccc1)S(C)(=O)=O [Compound 10d, 1,2-Bis(methylsulfonyl)-1-(2-chloroethyl)-2-(phenoxycarbonyl)hydrazine] the “Calculated Activation Rate due to Hydrolysis” value [4] was 0.06 nmol/mL/min, the “Calculated Activation Rate due to Thiolysis (5 mM GSH)” value [5] was 0.37 nmol/mL/min and the “Calculated Activation Rate due to Catalyzed Thiolysis (5 mM GSH + 17.5 U/ml GST)” value [6] was 1.80 nmol/mL/min. The “% 60-day survivors” value [7] was 40% and the “Av Δ wt (average percent change in body weight from onset to termination of therapy)” value [7] was -1.0%.
In the case of Cc1ccc(OC(=O)N(N(CCCl)S(C)(=O)=O)S(C)(=O)=O)cc1 [Compound 10e, 1,2-Bis(methylsulfonyl)-1-(2-chloroethyl)-2-[(4-tolyloxy)carbonyl]hydrazine], the “Calculated Activation Rate due to Hydrolysis” value [4] is reported as 0.02 nmol/mL/min, the “Calculated Activation Rate due to Thiolysis (5 mM GSH)” value [5] is reported as 0.45 nmol/mL/min and the “Calculated Activation Rate due to Catalyzed Thiolysis (5 mM GSH + 17.5 U/ml GST)” value [6] is reported as 1.52 nmol/mL/min. The “% 60-day survivors” value [7] was 20% and the “Av Δ wt (average percent change in body weight from onset to termination of therapy)” value [7] was -3.0%.
For CS(=O)(=O)N(CCCl)N(C(=O)Oc1ccc(Cl)cc1)S(C)(=O)=O [Compound 10f, 1,2-Bis(methylsulfonyl)-1-(2-chloroethyl)-2-[(4-chlorophenoxy)carbonyl]hydrazine], the “Calculated Activation Rate due to Hydrolysis” value [4] was 0.06 nmol/mL/min, the “Calculated Activation Rate due to Thiolysis (5 mM GSH)” value [5] was 0.92 nmol/mL/min and the “Calculated Activation Rate due to Catalyzed Thiolysis (5 mM GSH + 17.5 U/ml GST)” value [6] was 5.33 nmol/mL/min. For the same molecule, the “% 60-day survivors” value [7] was 80% and the “Av Δ wt (average percent change in body weight from onset to termination of therapy)” value [7] was -1.1%.
For COc1ccc(OC(=O)N(N(CCCl)S(C)(=O)=O)S(C)(=O)=O)cc1 [Compound 10g, 1,2-Bis(methylsulfonyl)-1-(2-chloroethyl)-2-[(4-methoxyphenoxy)carbonyl]hydrazine], the “Calculated Activation Rate due to Hydrolysis” value [4] was 0.14 nmol/mL/min, the “Calculated Activation Rate due to Thiolysis (5 mM GSH)” value [5] was 0.41 nmol/mL/min and the “Calculated Activation Rate due to Catalyzed Thiolysis (5 mM GSH + 17.5 U/ml GST)” value [6] was 1.80 nmol/mL/min. The “% 60-day survivors” value [7] was 40% and the “Av Δ wt (average percent change in body weight from onset to termination of therapy)” value [7] was -2.5%.
For CS(=O)(=O)N(CCCl)N(C(=O)OCc1ccccc1)S(C)(=O)=O [Compound 11, 2-Benzyloxycarbonyl-1,2-bis(methylsulfonyl)-1-(2-chloroethyl)hydrazine], the “toxicity to EMT6 cells, aerobic versus hypoxic (in words)” value ([8]; hypoxic or aerobic (FIG. 2)) was “essentially equitoxic to EMT6 cells under both conditions of oxygenation”.
In the case of CC(OC(=O)N(N(CCCl)S(C)(=O)=O)S(C)(=O)=O)c1ccc([N+](=O)[O-])cc1 (stereo not shown) [Compound 14, 1,2-Bis(methylsulfonyl)-1-(2-chloroethyl)-2-[[1-(4-nitrophenyl)ethoxy]carbonyl]hydrazine], the “toxicity to aerobic EMT6 cells compared with compound 10h (in words)” value ([8]; aerobic (FIG. 7 versus FIG. 1)) is reported as “less toxic to aerobic EMT6 cells than compound 10h” and the “toxicity to hypoxic EMT6 cells compared with compound 10h (in words)” value ([8]; hypoxic (FIG. 7 versus FIG. 1)) is reported as “essentially the same as that of compound 10h”.
In the case of CS(=O)(=O)N(CCCl)N(C(=O)OCOP(=O)(O)O)S(C)(=O)=O [Compound 16, triethanolamine salt of the free acid acid of O-dibenzylphosphate-methyl carbamate], the “% Body Weight Change” value ([7]; multiple dose 6 × 10 mg/kg) is reported as -3.6%, the “Average Survival” value ([7]; multiple dose 6 × 10 mg/kg) is reported as 14.7 days and the T/C ([7]; multiple dose 6 × 10 mg/kg) is reported as 184%. For the same molecule, the “Long Term Survival” value ([7]; multiple dose 6 × 10 mg/kg) was 2/5, the “% Body Weight Change” value ([7]; multiple dose 6 × 20 mg/kg) was “+2.5%” and the “Average Survival” value ([7]; multiple dose 6 × 20 mg/kg) was 19.5 days. The T/C ([7]; multiple dose 6 × 20 mg/kg) was 244%, the “Long Term Survival” value ([7]; multiple dose 6 × 20 mg/kg) was 3/5 and the “% Body Weight Change” value ([7]; multiple dose 6 × 40 mg/kg) was “+3.7%”. For the same molecule, the “Long Term Survival” value ([7]; multiple dose 6 × 40 mg/kg) was 5/5, the “% Body Weight Change” value ([7]; multiple dose 6 × 60 mg/kg) was -23.2% and the “Average Survival” value ([7]; multiple dose 6 × 60 mg/kg) was 11.0 days. For the same molecule, the T/C ([7]; multiple dose 6 × 60 mg/kg) was 138%, the “Long Term Survival” value ([7]; multiple dose 6 × 60 mg/kg) was 3/5 and the “activity against the L1210 leukemia (in words)” value ([7]; i.p. once daily for 6 days) was “significant activity against the L1210 leukemia tumor; also recorded: significant antitumor activity”.

From patent US6040338A, “N,n-bis(sulfonyl)hydrazines useful as antineoplastic agents” (Yale University, priority 1997, dated 2000)
